Data from publication doi:10.1101/2021.10.25.465661v1 (biorxiv, 2021).

Molecular target: T1, Q-eTud34 (Drosophila melanogaster, UniProt Q9VE55)
T1 sequence (Q9VE55 959-1515): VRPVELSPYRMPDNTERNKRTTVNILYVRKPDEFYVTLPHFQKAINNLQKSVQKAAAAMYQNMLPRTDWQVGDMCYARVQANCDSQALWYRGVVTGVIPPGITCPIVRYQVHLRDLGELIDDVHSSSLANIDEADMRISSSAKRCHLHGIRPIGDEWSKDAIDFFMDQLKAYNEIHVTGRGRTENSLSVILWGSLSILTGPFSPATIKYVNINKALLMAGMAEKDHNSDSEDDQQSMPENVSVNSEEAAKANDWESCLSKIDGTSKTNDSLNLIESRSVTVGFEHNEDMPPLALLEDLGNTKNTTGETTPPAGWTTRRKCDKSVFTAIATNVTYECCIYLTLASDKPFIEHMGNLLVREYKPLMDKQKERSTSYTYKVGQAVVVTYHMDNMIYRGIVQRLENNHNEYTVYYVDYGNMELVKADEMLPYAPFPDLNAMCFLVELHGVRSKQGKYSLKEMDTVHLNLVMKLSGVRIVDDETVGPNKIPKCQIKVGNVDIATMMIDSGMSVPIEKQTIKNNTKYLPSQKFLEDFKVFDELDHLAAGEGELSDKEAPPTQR
Assay: thermal shift assay
Format: binding
Settings: read-out: Tm increase at 10 mM

ΔTm at 10000 µM: 0.9 °C
Compound: CN(C)C(=N)NCCC[C@H](N)C(=O)O [aDMA]
